Where a name gives a salt, the structure may show the parent alone.
Each compound was assayed on A. thaliana (assay: Herbicidal activity assay, post-emergence, pots). Details: A. thaliana Col-0; post-emergence treatments at three and six days after germination; grown 16 days after treatment.
Type: in vivo, Arabidopsis thaliana Col-0
Experimental: (§1) A range of compounds of the invention were assessed for herbicidal activity against A. thaliana. A. thaliana Col-0 seeds (˜30) were sown in 63×63×59 mm pots consisting of Irish peat that was pre-wet prior to sowing. Seeds were cold-treated for 3 days in the dark at 4° C. to synchronise germination and then grown in a chamber at 22° C., with 60% relative humidity and in a 16 h light/8 h dark photoperiod. Compounds of the invention were initially dissolved in dimethyl sulfoxide (DMSO) at 20 mg/mL and further diluted in water prior to treatments. The surfactant Brushwet (SST Australia) was added to a final concentration of 0.02%. The carrier DMSO was used as a negative control. Seeds or seedlings were treated with solutions of compound that contained 2% of DMSO, using a pipette. Post-emergence treatments were done at three and six days after germination. Seedlings were grown for 16 days after treatment before photos were taken.
The results of this study are represented in the following table, where compounds of the invention are represented by number, and herbicidal activity is represented using the following: ≤125 μM=+++, ≤500 μM=++, ≤2000 μM=+
as §1, with “A.” for “A range of compounds of the invention were assessed for herbicidal activity against A. thaliana. A.”, “Compounds” for “Compounds of the invention”

Compound	Active at
CC(=NNC(=O)Nc1cccc(F)c1)c1ncccc1C(=O)OCCN(C)C.Cl [2-(Dimethylamino)ethyl 2-[1-[2-[[(3-fluorophenyl)amino]carbonyl]hydrazinylidene]ethyl]-3-pyridinecarboxylate hydrochloride]	125 µM
CC(C)C1(C)N=C(c2ncccc2C(=O)OCCN(C)C)NC1=O.Cl (stereo not shown) [2-(Dimethylamino)ethyl 2-[4,5-dihydro-4-methyl-4-(1-methylethyl)-5-oxo-1H-imidazol-2-yl]-3-pyridinecarboxylate hydrochloride]	500 µM
CN(C)CCOC(=O)c1nc(Cl)ccc1Cl.Cl [3,6-dichloropyridine-2-carboxylic acid 2-(dimethylamino)ethyl ester hydrochloride]	125 µM
CN(C)CCOC(=O)c1nc(Cl)ccc1Cl [3,6-dichloropyridine-2-carboxylic acid 2-(dimethylamino)ethyl ester]	125 µM
CN(C)CCOC(=O)c1c(Cl)ccc2cc(Cl)cnc12.Cl [3,7-dichloroquinoline-8-carboxylic acid 2-(dimethylamino)ethyl ester hydrochloride]	2000 µM
CN(C)CCOC(=O)c1c(Cl)ccc2cc(Cl)cnc12 [3,7-dichloroquinoline-8-carboxylic acid 2-(dimethylamino)ethyl ester]	2000 µM

Same assay, conditions: Arabidopsis thaliana, 384 h; A. thaliana Col-0; post-emergence treatments at three and six days after germination; grown 16 days after treatment

Compound	minimal effective concentration
O=C(O)CC(O)(CC(=O)O)C(=O)O [1. citrate]	≤ 125 µM
COc1c(Cl)ccc(Cl)c1C(=O)OCCN(C)C [Compound 1, 2-(dimethylamino)ethyl 3,6-dichloro-2-methoxybenzoate]	≤ 500 µM
CCN(CC)CCOC(=O)c1c(Cl)ccc(Cl)c1OC [Compound 2, 2-(diethylamino)ethyl 3,6-dichloro-2-methoxybenzoate]	≤ 125 µM
COc1c(Cl)ccc(Cl)c1C(=O)OCCN(C(C)C)C(C)C [Compound 3, 2-(dipropan-2-ylamino)ethyl 3,6-dichloro-2-methoxybenzoate]	≤ 500 µM
CCCCN(CCCC)CCOC(=O)c1c(Cl)ccc(Cl)c1OC [Compound 4, 2-(dibutylamino)ethyl 3,6-dichloro-2-methoxybenzoate]	≤ 125 µM
COc1c(Cl)ccc(Cl)c1C(=O)OCCN1CCCC1 [Compound 5, 2-(pyrrolidin-1-yl)ethyl 3,6-dichloro-2-methoxybenzoate]	≤ 500 µM
COc1c(Cl)ccc(Cl)c1C(=O)OCCN1CCCCC1 [Compound 6, 2-(piperidin-1-yl)ethyl 3,6-dichloro-2-methoxybenzoate]	≤ 2000 µM
COc1c(Cl)ccc(Cl)c1C(=O)OCCN1CCOCC1 [Compound 7, 2-(morpholin-4-yl)ethyl 3,6-dichloro-2-methoxybenzoate]	≤ 125 µM
COc1c(Cl)ccc(Cl)c1C(=O)OCCN1CCN(C)CC1 [Compound 8, 2-(4-methylpiperazin-1-yl)ethyl 3,6-dichloro-2-methoxybenzoate]	≤ 2000 µM
COc1c(Cl)ccc(Cl)c1C(=O)OC1CCN(C)CC1 [Compound 9, 1-methylpiperidin-4-yl 3,6-dichloro-2-methoxybenzoate]	≤ 2000 µM
COc1c(Cl)ccc(Cl)c1C(=O)OCC1CCCN1C (stereo not shown) [Compound 10, (1-methylpyrrolidin-2-yl)methyl 3,6-dichloro-2-methoxybenzoate]	≤ 500 µM
COc1c(Cl)ccc(Cl)c1C(=O)OCCc1ccccn1 [Compound 11, 2-(pyridin-2-yl)ethyl 3,6-dichloro-2-methoxybenzoate]	≤ 125 µM
COc1c(Cl)ccc(Cl)c1C(=O)OCCCN(C)C [Compound 12, 3-(dimethylamino)propyl 3,6-dichloro-2-methoxybenzoate]	≤ 2000 µM
COc1c(Cl)ccc(Cl)c1C(=O)OCCCCCCN(C)C [Compound 14, 6-(dimethylamino)hexyl 3,6-dichloro-2-methoxybenzoate]	≤ 125 µM
COc1c(Cl)ccc(Cl)c1C(=O)OCCCCCCCCN(C)C [Compound 15, 8-(dimethylamino)octyl 3,6-dichloro-2-methoxybenzoate]	≤ 500 µM
COc1c(Cl)ccc(Cl)c1C(=O)OCCOCCN(C)C [Compound 16, 2-(2-(dimethylamino)ethoxy)ethyl 3,6-dichloro-2-methoxybenzoate]	≤ 500 µM
COc1c(Cl)ccc(Cl)c1C(=O)OCCN(C)CCO [Compound 17, 2-((2-hydroxyethyl)(methyl)amino)ethyl 3,6-dichloro-2-methoxybenzoate]	≤ 2000 µM
COc1c(Cl)ccc(Cl)c1C(=O)OCCN(C)CCOC(=O)c1c(Cl)ccc(Cl)c1OC [Compound 18, (Methylazanediyl)bis(ethane-2,1-diyl) bis(3,6-dichloro-2-methoxybenzoate)]	≤ 125 µM
COc1c(Cl)ccc(Cl)c1C(=O)OCCN [Compound 19, 2-aminoethyl 3,6-dichloro-2-methoxybenzoate]	≤ 500 µM
CNCCOC(=O)c1c(Cl)ccc(Cl)c1OC [Compound 20, 2-(methylamino)ethyl 3,6-dichloro-2-methoxybenzoate]	≤ 500 µM
COc1c(Cl)ccc(Cl)c1C(=O)OCC(C)(C)N [Compound 21, 2-amino-2-methylpropyl 3,6-dichloro-2-methoxybenzoate]	≤ 500 µM
COc1c(Cl)ccc(Cl)c1C(=O)OC(C)CN (stereo not shown) [Compound 22, 1-aminopropan-2-yl 3,6-dichloro-2-methoxybenzoate]	≤ 2000 µM
COc1c(Cl)ccc(Cl)c1C(=O)OCCCN [Compound 23, 3-aminopropyl 3,6-dichloro-2-methoxybenzoate]	≤ 125 µM
CCN(CCOC(=O)c1c(Cl)ccc(Cl)c1OC)c1ccccc1 [Compound 24, 2-(ethyl(phenyl)amino)ethyl 3,6-dichloro-2-methoxybenzoate]	≤ 500 µM
COc1c(Cl)ccc(Cl)c1C(=O)OCCN(Cc1ccccc1)Cc1ccccc1 [Compound 25, 2-(dibenzylamino)ethyl 3,6-dichloro-2-methoxybenzoate]	≤ 2000 µM
COc1c(Cl)ccc(Cl)c1C(=O)OC(CN(C)C)CN(C)C [Compound 26, 1,3-bis(dimethylamino)propan-2-yl 3,6-dichloro-2-methoxybenzoate]	≤ 125 µM
COc1c(Cl)ccc(Cl)c1C(=O)SCCN(C)C [Compound 27, S-(2-(dimethylamino)ethyl) 3,6-dichloro-2-methoxybenzene-1-carbothioate]	≤ 125 µM
CCN(CC)CCSC(=O)c1c(Cl)ccc(Cl)c1OC [Compound 28, S-(2-(diethylamino)ethyl) 3,6-dichloro-2-methoxybenzene-1-carbothioate]	≤ 125 µM

Each compound was assayed on Arabidopsis thaliana (assay: Activity of 2,4-DB esters compared with 2,4-DB). Details: 31.25 μM to 2000 μM; imaged day 12.
Type: in vivo
Experimental: (§2) Once the Arabidopsis thaliana seeds had germinated, this was Day 0 and an image taken (Treatment—Day 0) to show plants were all at the same stage. Plants were treated either with 2,4-DB or 2-(dimethylamino)ethyl 4-(2,4-dichlorophenoxy)butanoate at concentrations ranging from 31.25 μM to 2000 μM as marked and imaged 12 days later (Treatment—Day 12).
as §2, with “4-(2,4-dichlorophenoxy)butanoate hydrochloride” for “4-(2,4-dichlorophenoxy)butanoate”

Compound	activity against Arabidopsis thaliana on an equimolar basis, FIGS. 19 and 20
O=C(O)CCCOc1ccc(Cl)cc1Cl [2,4-DB, 4-(2,4-dichlorophenoxy)butanoic acid, reference compound]	comparable activity
CN(C)CCOC(=O)CCCOc1ccc(Cl)cc1Cl.Cl [2-(dimethylamino)ethyl 4-(2,4-dichlorophenoxy)butanoate hydrochloride]	comparable activity
CN(C)CCOC(=O)CCCOc1ccc(Cl)cc1Cl [2-(dimethylamino)ethyl 4-(2,4-dichlorophenoxy)butanoate]	comparable activity
